Patent US20120258980A1, “Antibacterial Agent for Drug-Resistant Bacteria, Method for Screening for Same, and Use of Same” (priority 2009, published 2012)
Where two headings read alike, the source gives them in different places.

What was measured:
[1] = tested on: MRSA, CA-MRSA and MSSA of Staphylococcus aureus; assay: MIC measurement, Test Example 4 (MRSA, CA-MRSA and MSSA strains); type: cell-based
Description: (§1) Each of the bacterial strains listed in Table 1-1 was shake-cultured at 37° C. overnight in 4 mL of a medium (Tryptical Soy Broth: TSB, product of Becton Dickinson and Company). FDA209P was used as a control.
(§2) After completion of culturing, the resultant culture was suspended in a cation-adjusted Mueller Hinton Broth (CAMHB, product of Becton Dickinson and Company). Then, the obtained bacterial culture was adjusted in absorbance with the CAMHB so that the absorbance at 578 nm of the bacterial culture was adjusted to 0.3 measured by an absorption spectrometer. In addition, the resultant bacterial culture was 500-fold diluted with the CAMHB.
(§3) Each of the 500-fold diluted, pre-cultured bacterial cultures was added at 50 μL/well to the CAMHB containing the quinolones and the nybomycins at various concentrations (50 μL/well), followed by statically culturing at 37° C. overnight.
(§4) After completion of culturing, the growth of the bacteria was visually determined based on turbidity to measure MIC in each bacterial strain.
Glycopeptides, imipenem, quinolones and nybomycins were studied for antibacterial activity against the bacterial strains listed in Table 2-1; i.e., MRSA, CA-MRSA and MSSA of Staphylococcus aureus.

[2] = tested on: VISA clinical isolates of MRSA (VI-MRSA) and of MSSA (VI-MSSA); assay: microbe, parasite or virus in culture; type: cell-based, Staphylococcus aureus
Description: as §1, §2, §3, §4
Here, the glycopeptides used were VCM and TEIC. The β-lactam used was OXA.

VRSA clinical isolates = settings: based on NARSA, cited from earlier work

## teicoplanin
[1]; ATCC 29213, MSSA
  MIC: 2 µg/mL
[1]; COL, MRSA
  MIC: 2 µg/mL
[1]; FDA209P, MSSA
  MIC: 0.06 µg/mL
[1]; ISA12-1, MRSA
  MIC: 1 µg/mL
[1]; ISA12-2, MRSA
  MIC: 1 µg/mL
[1]; ISA35-1, MRSA
  MIC: 2 µg/mL
[1]; ISA37-1, MSSA
  MIC: 1 µg/mL
[1]; ISA49-1, MSSA
  MIC: 0.5 µg/mL
[1]; ISA51-1, MSSA
  MIC: 0.5 µg/mL
[1]; ISA56-3, MRSA
  MIC: 4 µg/mL
[1]; ISA58-1, MRSA
  MIC: 2 µg/mL
[1]; ISA62-1, MRSA
  MIC: 1 µg/mL
[1]; ISA73-1, MSSA
  MIC: 2 µg/mL
[1]; KBSA32, MRSA
  MIC: 1 µg/mL
[1]; KBSA34, MRSA
  MIC: 1 µg/mL
[1]; KBSA72, MRSA
  MIC: 1 µg/mL
[1]; KBSA96, MRSA
  MIC: 1 µg/mL
[1]; KBSA171, MRSA
  MIC: 0.25 µg/mL
[1]; KSA24, MRSA
  MIC: 1 µg/mL
[1]; KSA31, MRSA
  MIC: 1 µg/mL
[1]; KSA36, MRSA
  MIC: 1 µg/mL
[1]; MW2, CA-MRSA
  MIC: 0.5 µg/mL
[1]; N315, MRSA
  MIC: 0.25 µg/mL
[1]; NCTC 8325, MSSA
  MIC: 0.5 µg/mL
[1]; USA300 FPR3757, CA-MRSA
  MIC: 1 µg/mL
[2]; 99/3700-W, VI-MRSA, The United Kingdom
  MIC: 2 µg/mL
[2]; 99/3759-V, VI-MRSA, The United Kingdom
  MIC: 8 µg/mL
[2]; 28160, VI-MRSA, South African Republic
  MIC: 4 µg/mL
[2]; 98141, VI-MRSA, France
  MIC: 4 µg/mL
[2]; A7 (JCSC4842), VI-MRSA, Taiwan
  MIC: 8 µg/mL
[2]; AMC11094, VI-MRSA, Korea
  MIC: 8 µg/mL
[2]; B7 (JCSC4852), VI-MRSA, Taiwan
  MIC: 16 µg/mL
[2]; BR1, VI-MRSA, Brazil
  MIC: 2 µg/mL
[2]; BR2, VI-MRSA, Brazil
  MIC: 1 µg/mL
[2]; BR3, VI-MRSA, Brazil
  MIC: 4 µg/mL
[2]; BR4, VI-MRSA, Brazil
  MIC: 8 µg/mL
[2]; BR5, VI-MRSA, Brazil
  MIC: 4 µg/mL
[2]; HIP06297, VI-MRSA, America
  MIC: 8 µg/mL
[2]; HIP06854, VI-MRSA, America
  MIC: 2 µg/mL
[2]; HIP07920, VI-MRSA, America
  MIC: 2 µg/mL
[2]; HIP07930, VI-MRSA, America
  MIC: 4 µg/mL
[2]; HIP08926, VI-MRSA, America
  MIC: 4 µg/mL
[2]; HIP09143, VI-MRSA, America
  MIC: 4 µg/mL
[2]; HIP09313, VI-MRSA, America
  MIC: 4 µg/mL
[2]; HIP09433, VI-MRSA, America
  MIC: 8 µg/mL
[2]; HIP09662, VI-MRSA, America
  MIC: 4 µg/mL
[2]; HIP09735, VI-MRSA, America
  MIC: 4 µg/mL
[2]; HIP09737, VI-MSSA, America
  MIC: 4 µg/mL
[2]; HIP09740, VI-MRSA, America
  MIC: 4 µg/mL
[2]; HIP10267, VI-MRSA, America
  MIC: 4 µg/mL
[2]; HIP10540, VI-MRSA, America
  MIC: 16 µg/mL
[2]; HIP12864, VI-MRSA, America
  MIC: 8 µg/mL
[2]; HIP13036, VI-MRSA, America
  MIC: 4 µg/mL
[2]; HIP13057, VI-MRSA, America
  MIC: 8 µg/mL
[2]; IL (HIP7737), VI-MRSA, America
  MIC: 4 µg/mL
[2]; JCSC7193, VI-MRSA, Thailand
  MIC: 8 µg/mL
[2]; JCSC7195, VI-MRSA, Thailand
  MIC: 8 µg/mL
[2]; JCSC7203, VI-MRSA, Thailand
  MIC: 4 µg/mL
[2]; LIM2, VI-MRSA, France
  MIC: 8 µg/mL
[2]; LY-1999-01, VI-MSSA, Oman
  MIC: 8 µg/mL
[2]; LY-1999-03, VI-MRSA, Oman
  MIC: 8 µg/mL
[2]; MI (HIP5827), VI-MRSA, America
  MIC: 8 µg/mL
[2]; Mu3, VI-MRSA, Japan
  MIC: 8 µg/mL
[2]; Mu50, VI-MRSA, Japan
  MIC: 16 µg/mL
[2]; NJ (HIP5836), VI-MRSA, America
  MIC: 8 µg/mL
[2]; NRS76, VI-MSSA, America
  MIC: 4 µg/mL
[2]; NRS79, VI-MRSA, America
  MIC: 8 µg/mL
[2]; NRS118, VI-MRSA, America
  MIC: 8 µg/mL
[2]; NRS126, VI-MRSA, America
  MIC: 2 µg/mL
[2]; P1V44, VI-MSSA, Belgium
  MIC: 16 µg/mL
[2]; PC, VI-MRSA, America
  MIC: 4 µg/mL
[2]; SA MER-S6, VI-MSSA, France
  MIC: 8 µg/mL
[2]; SA MER-S12, VI-MSSA, France
  MIC: 16 µg/mL
[2]; SA MER-S20, VI-MSSA, France
  MIC: 32 µg/mL
VRSA clinical isolates; VRS1, VRSA, Michigan
  MIC: 64 µg/mL
VRSA clinical isolates; VRS2, VRSA, Pennsylvania
  MIC: 8 µg/mL
VRSA clinical isolates; VRS3, VRSA, New York
  MIC: 16 µg/mL
VRSA clinical isolates; VRS4, VRSA, New York
  MIC: 32 µg/mL
VRSA clinical isolates; VRS5, VRSA, Michigan
  MIC: 128 µg/mL
VRSA clinical isolates; VRS6, VRSA, Michigan
  MIC: >256 µg/mL
VRSA clinical isolates; VRS7, VRSA, Michigan
  MIC: >256 µg/mL
